Values quoted from earlier work, collected in paper PMC5863612 (Chemical Science, 2017).

Test system: βPGM
Conditions: for Km: previously recorded result

Row | Molecule | Km [µM] | Inhibition of βPGM (reported range)
1 | O=P(O)(O)O[C@@H]1O[C@H](CO)[C@@H](O)[C@H](O)[C@H]1O [βG1P, β-D-glucose 1-phosphate] | 14.7 | 
2 | O=P(O)(O)OC[C@H]1O[C@@H](OP(=O)(O)O)[C@H](O)[C@@H](O)[C@@H]1O [βG16BP, β-glucose-1,6-bisphosphate] | 0.72 ± 0.04 | 
3 | fluorine |  | low millimolar range
